Data on three molecules can be found in patent publication US11279733B2, “Peptide antibiotics” (priority 2017, dated 2022).

One data set in a line: in vitro. The following applies: human. How it is done:
Cytotoxicity of the synthesised peptides was evaluated by comparison with commercially available colistin (polymyxin E), polymyxin B (Sigma chemical Co., St. Louis, Mo., U.S.A.) and synthetic octapeptin C4 by conducting lactate dehydrogenase (LDH) assay. CC50 values calculated based on curve fitting of dose dependent inhibition of cell growth represented the cytotoxicity of the peptide. Human kidney 2 (HK2) cells were seeded as 2000 cells per well in a 384 well cell culture plate in a final volume of 20 μL in DMEM/F12 medium (Invitrogen #11330057), in which 10% of FBS was added. Cells were incubated for 24 hours at 37° C., 5% CO2 to allow cells to attach to the plates. Similar conditions were employed for HEK293 and HepG2 cytotoxicity assays.
Cytotoxicity to HEK293 and HepG2 cells was determined using the resazurin assay (McMillian, M. K.; Li, L.; Parker, J. B.; Patel, L.; Zhong, Z.; Gunnett, J. W.; Powers, W. J.; Johnson, M. D. An improved resazurin-based cytotoxicity assay for hepatic cells; Cell Biol. Toxicol. 2002, 18, 157-173; O'Brien, J.; Wilson, I.; Orton, T.; Pognan, F. Investigation of the Alamar Blue (resazurin) fluorescent dye for the assessment of mammalian cell cytotoxicity. Eur. J. Biochem. 2000, 267, 5421-5426). In brief, HEK293 and HepG2 cells were seeded at 4000 cells/well in black-wall, clear-bottom 384-well plates (Corning, Australia) and incubated for 24 h at 37° C., 5% CO2. Compounds were then added into each well. After 24 h incubation, 5 μM resazurin was added per well and incubated at 37° C. for 2 h. Fluorescence intensity was then read using a Polarstar Omega with excitation/emission 560/590. The data was then analyzed using GraphPad Prism 6 software. CC50 values were determined using GraphPad Prism 6 software (Inc. La Jolla, Calif.).

Data set [1] relates to K. pneumoniae ATCC 700603, MDR. Particulars: ATCC 700603. The essentials:
(§1)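 Mid-log cultures grown in Mueller Hinton broth at 37° C were tested by 2-fold broth microdilution at 5×10^5 CFU/mL final. Compounds were dissolved in water and tested over a final range of 32 to 0.015 μg/mL.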

A further data set deals with A. baumannii ATCC 19606. Particulars: ATCC 19606. The essentials:
as §1

The subject of data set [2] is K. pneumoniae GN_106, PmxR. Particulars: GN 106, PmxR. The essentials: as §1
Another data set deals with P. aeruginosa ATCC 27853. Particulars: ATCC 27853. The essentials: as §1
In another data set the test system is K. pneumoniae ATCC 13883. The following applies: ATCC 13883. The gist of the method: as §1
Data set [3] has as its system K. pneumoniae GN_102 PmxR. The following applies: GN 102 PmxR. The essentials:
as §1

The next data set deals with E. coli ATCC 25922. Particulars: ATCC 25922. The essentials:
as §1

Data set [4] relates to K. pneumoniae ATCC BAA-2146, NDM-1 pos. Particulars: ATCC BAA-2146. The essentials: as §1
The subject of data set [5] is P. aeruginosa GN_043, PmxR. The essentials: as §1
In a further data set the test system is A. baumannii GN_093 PmxR. Particulars: GN 093 PmxR. The essentials: as §1
Data set [6] relates to S. aureus ATCC 25923, MSSA. Particulars: ATCC 25923. The essentials:
as §1

Data set [7] has as its system P. aeruginosa GN_105, PmxR. The following applies: GN 105, PmxR. The gist of the method:
as §1

≈ marks a conversion by molar mass, not a printed value. Positions of bridges follow the written chain, without caps; N, C: chain ends. Non-standard residues stand in square brackets, D forms with d. Residues, ends and D or L forms follow the SMILES beside them. *: point of attachment. Decanoyl(3R-OH) = CCCCCCC[C@@H](O)CC(=O)*; Undecanoyl = CCCCCCCCCCC(=O)*; Lauroyl = CCCCCCCCCCCC(=O)*; dDab = NCC[C@@H](N)C(=O)O; dDap = NC[C@@H](N)C(=O)O; Dab = NCC[C@H](N)C(=O)O

`CCCCCCC[C@@H](O)CC(=O)N[C@H](CCN)C(=O)N[C@H]1CCNC(=O)[C@H](CC(C)C)NC(=O)[C@H](CCN)NC(=O)[C@H](CCN)NC(=O)[C@H](CC(C)C)NC(=O)[C@@H](Cc2ccccc2)NC(=O)[C@H](CCCCN)NC1=O` [compound 995, 3(R)OH-nC9CO-D-Dab-cyc[L-Dab-L-Lys-D-Phe-L-Leu-L-Dab-L-Dab-L-Leu]] ({Decanoyl(3R-OH)}-[dDab][Dab]K[dF]L[Dab][Dab]L; lactam 2-C) returned a CC50 at 24 h in the data set “in vitro” above 300 µM. The “MIC, K. pneumoniae ATCC 700603, MDR” value in data set [1] turned out to be 8 µg/mL (≈ 7.46 µM). The “MIC, A. baumannii ATCC 19606” value against A. baumannii ATCC 19606 is above 32 µg/mL. For the same molecule, the “MIC, K. pneumoniae Cl 138-16347-20362, PmxR” value in data set [2] was found to be 8 µg/mL (≈ 7.46 µM). Also, in the data set with P. aeruginosa ATCC 27853, the “MIC, P. aeruginosa ATCC 27853” value is 4 µg/mL (≈ 3.73 µM). Moreover, the “MIC, K. pneumoniae ATCC 13883” value in the data set with K. pneumoniae ATCC 13883 was 8 µg/mL (≈ 7.46 µM). The “MIC, K. pneumoniae Cl Koprana 10065 0661:1, PmxR” value in data set [3] is 4 µg/mL (≈ 3.73 µM). The “MIC, E. coli ATCC 25922” value in the data set with E. coli ATCC 25922 amounted to 8 µg/mL (≈ 7.46 µM). Moreover, in data set [4], the “MIC, K. pneumoniae ATCC BAA-2146, NDM-1 pos” value is 8 µg/mL (≈ 7.46 µM). Further, the “MIC, P. aeruginosa FADDI-PA070, PmxR” value in data set [5] (Table 5, polymyxin-resistant) worked out at 8 µg/mL (≈ 7.46 µM). Also, the “MIC, A. baumannii Cl Ptyela 10073 4512:2, PmxR” value with A. baumannii GN_093 PmxR is 32 µg/mL (≈ 29.8 µM). Besides, the “MIC, S. Aureus ATCC 25923, MSSA” value in [6] amounted to 32 µg/mL (≈ 29.8 µM). Further, the “MIC, P. aeruginosa PA9704, PmxR” value in data set [7] stood at 8 µg/mL (≈ 7.46 µM).
In “in vitro”, `CCCCCCCCCCC(=O)N[C@H](CN)C(=O)N[C@H]1CCNC(=O)[C@H](CC(C)C)NC(=O)[C@H](CCN)NC(=O)[C@H](CCN)NC(=O)[C@H](CC(C)C)NC(=O)[C@@H](Cc2ccccc2)NC(=O)[C@H](CCN)NC1=O` [compound 9296, nC10CO-D-Dap-cyc[L-Dab-L-Dab-D-Phe-L-Leu-L-Dab-L-Dab-L-Leu]] (Undecanoyl-[dDap][Dab][Dab][dF]L[Dab][Dab]L; lactam 2-C) displayed a CC50 at 24 h of 63 µM. Further, the “MIC K. pneumoniae ATCC 700603, MDR” value in data set [1] is 2 µg/mL (≈ 1.94 µM). In the data set with A. baumannii ATCC 19606, the “MIC A. baumannii ATCC 19606” value was 16 µg/mL (≈ 15.6 µM). In data set [2], the “MIC K. pneumoniae GN_106, PmxR” value is 4 µg/mL (≈ 3.89 µM). Besides, the “MIC P. aeruginosa ATCC 27853” value in the data set on P. aeruginosa ATCC 27853 came to 2 µg/mL (≈ 1.94 µM). In addition, the “MIC K. pneumoniae ATCC 13883” value in the data set with K. pneumoniae ATCC 13883 turned out to be 4 µg/mL (≈ 3.89 µM). For the same molecule, the “MIC K. pneumoniae GN_102 PmxR” value in [3] was determined as 2 µg/mL (≈ 1.94 µM). In addition, in the data set with E. coli ATCC 25922, the “MIC E. coli ATCC 25922” value was found to be 4 µg/mL (≈ 3.89 µM). Further, the “MIC K. pneumoniae ATCC BAA-2146, NDM-1 pos” value in [4] came to 4 µg/mL (≈ 3.89 µM). In addition, the “MIC P. aeruginosa GN_043, PmxR” value in data set [5] was determined as 1 µg/mL (≈ 0.972 µM). The “MIC A. baumannii GN_093 PmxR” value in the data set with A. baumannii GN_093 PmxR came to 32 µg/mL (≈ 31.1 µM). In data set [7], the “MIC P. aeruginosa GN_105, PmxR” value came to 32 µg/mL (≈ 31.1 µM).
For `CCCCCCCCCCCC(=O)N[C@H](CN)C(=O)N[C@H]1CCNC(=O)[C@H](CC(C)C)NC(=O)[C@H](CCN)NC(=O)[C@H](CCN)NC(=O)[C@H](CC(C)C)NC(=O)[C@@H](Cc2ccccc2)NC(=O)[C@H](CCN)NC1=O` [compound 9297, nC11CO-D-Dap-cyc[L-Dab-L-Dab-D-Phe-L-Leu-L-Dab-L-Dab-L-Leu]] (Lauroyl-[dDap][Dab][Dab][dF]L[Dab][Dab]L; lactam 2-C), in “in vitro”, the CC50 at 24 h came to 33 µM. The “MIC K. pneumoniae ATCC 700603, MDR” value in data set [1] came out at 4 µg/mL (≈ 3.84 µM). Also, the “MIC A. baumannii ATCC 19606” value in the data set with A. baumannii ATCC 19606 was 16 µg/mL (≈ 15.3 µM). Also, the “MIC K. pneumoniae GN_106, PmxR” value in data set [2] was determined as 8 µg/mL (≈ 7.67 µM). For the same molecule, the “MIC P. aeruginosa ATCC 27853” value in the data set on P. aeruginosa ATCC 27853 is 4 µg/mL (≈ 3.84 µM). Further, the “MIC K. pneumoniae ATCC 13883” value against K. pneumoniae ATCC 13883 came out at 4 µg/mL (≈ 3.84 µM). Also, the “MIC K. pneumoniae GN_102 PmxR” value in data set [3] was determined as 8 µg/mL (≈ 7.67 µM). For the same molecule, the “MIC E. coli ATCC 25922” value against E. coli ATCC 25922 was 2 µg/mL (≈ 1.92 µM). Moreover, the “MIC K. pneumoniae ATCC BAA-2146, NDM-1 pos” value in [4] was found to be 8 µg/mL (≈ 7.67 µM). Besides, in [5], the “MIC P. aeruginosa GN_043, PmxR” value is 2 µg/mL (≈ 1.92 µM). Further, the “MIC A. baumannii GN_093 PmxR” value in the data set with A. baumannii GN_093 PmxR turned out to be 8 µg/mL (≈ 7.67 µM). Further, the “MIC P. aeruginosa GN_105, PmxR” value in [7] came out at 8 µg/mL (≈ 7.67 µM).
